Measurements as given in ChEMBL document CHEMBL1144784, “A novel series of potent and selective ketone histone deacetylase inhibitors with antitumor activity in vivo” (J Med Chem, 2008).

Key:
[1] = Antiproliferative activity against human renal epithelial cells by CellTiter-Blue cell viability assay; type: ADME, cell-based
Plasma [2] = test: Stability in human plasma at 5 uM after 4 hrs; type: ADME, cell-free
Histone deacetylase 8 = molecular target: T1, Histone deacetylase 8 (Homo sapiens, UniProt Q9BY41); test: Inhibition of HDAC8 expressed in Escherichia coli
T1 sequence (Q9BY41 whole entry): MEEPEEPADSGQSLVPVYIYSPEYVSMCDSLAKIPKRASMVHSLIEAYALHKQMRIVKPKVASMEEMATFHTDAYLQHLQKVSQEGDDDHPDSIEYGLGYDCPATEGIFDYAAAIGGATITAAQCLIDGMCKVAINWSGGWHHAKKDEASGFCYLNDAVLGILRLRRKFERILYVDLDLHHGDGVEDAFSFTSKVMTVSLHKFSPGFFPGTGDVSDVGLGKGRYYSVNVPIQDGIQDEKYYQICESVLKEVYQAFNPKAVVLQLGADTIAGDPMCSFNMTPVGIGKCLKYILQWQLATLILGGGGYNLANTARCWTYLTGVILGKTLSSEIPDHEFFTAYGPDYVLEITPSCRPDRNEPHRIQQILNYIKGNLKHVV

Plasma [3] = test: Stability in dog plasma at 5 uM after 4 hrs; type: ADME, cell-free, Canis lupus familiaris
Histone deacetylase 5 = Histone deacetylase 5 (Homo sapiens, UniProt Q9UQL6); test: Inhibition of HDAC5 expressed in Escherichia coli
HCT-116 [4] = test: Antiproliferative activity against human HCT116 cells by CellTiter-Blue cell viability assay; type: functional, cell-based
Histone deacetylase 4 [5] = molecular target: T2, Histone deacetylase 4 (Homo sapiens, UniProt P56524); test: Inhibition of HDAC4 expressed in Escherichia coli
Target sequence in this assay (P56524 whole entry): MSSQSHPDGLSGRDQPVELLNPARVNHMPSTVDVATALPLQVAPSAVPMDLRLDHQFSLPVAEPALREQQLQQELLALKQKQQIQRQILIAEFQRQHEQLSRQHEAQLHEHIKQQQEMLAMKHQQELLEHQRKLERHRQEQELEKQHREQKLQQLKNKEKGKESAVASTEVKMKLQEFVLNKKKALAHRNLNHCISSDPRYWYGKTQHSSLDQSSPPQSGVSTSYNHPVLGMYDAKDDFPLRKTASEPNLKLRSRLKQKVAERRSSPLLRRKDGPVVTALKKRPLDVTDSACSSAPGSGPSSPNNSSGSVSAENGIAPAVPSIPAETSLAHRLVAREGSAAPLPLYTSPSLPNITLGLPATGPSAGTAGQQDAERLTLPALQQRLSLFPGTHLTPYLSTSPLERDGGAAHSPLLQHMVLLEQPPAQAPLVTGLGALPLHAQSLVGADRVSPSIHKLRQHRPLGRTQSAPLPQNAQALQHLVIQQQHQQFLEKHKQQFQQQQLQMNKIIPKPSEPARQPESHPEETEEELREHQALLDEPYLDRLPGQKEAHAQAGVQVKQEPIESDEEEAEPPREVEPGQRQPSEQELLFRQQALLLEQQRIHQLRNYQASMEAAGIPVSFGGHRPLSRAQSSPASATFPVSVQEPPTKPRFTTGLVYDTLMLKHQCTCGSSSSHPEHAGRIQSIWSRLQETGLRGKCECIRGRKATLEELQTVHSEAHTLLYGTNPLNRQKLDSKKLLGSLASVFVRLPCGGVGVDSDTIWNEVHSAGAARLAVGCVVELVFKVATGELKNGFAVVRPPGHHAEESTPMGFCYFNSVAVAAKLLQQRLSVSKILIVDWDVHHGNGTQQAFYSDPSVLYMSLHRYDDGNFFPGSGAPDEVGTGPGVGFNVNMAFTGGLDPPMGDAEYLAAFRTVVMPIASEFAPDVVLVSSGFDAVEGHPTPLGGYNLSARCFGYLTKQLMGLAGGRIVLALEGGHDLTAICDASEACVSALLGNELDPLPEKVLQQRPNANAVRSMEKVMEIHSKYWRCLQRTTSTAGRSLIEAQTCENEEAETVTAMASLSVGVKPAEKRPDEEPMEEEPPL

HeLa = test: Antiproliferative activity against human HeLa cells by CellTiter-Blue cell viability assay; type: functional, cell-based
Plasma [6] = test: Stability in mouse plasma at 5 uM after 4 hrs; type: ADME, cell-free
Histone deacetylase 3 = Histone deacetylase 3 (Homo sapiens, UniProt O15379)
A2780 = test: Antiproliferative activity against human A2780 cells by CellTiter-Blue cell viability assay; type: functional, cell-based
Histone deacetylase 4 [7] = molecular target: T2, Histone deacetylase 4; test: Inhibition of HDAC4 gain-of-function phenotype expressed in Escherichia coli
Target sequence in this assay (P56524 whole entry, looked up): as the sequence (P56524 whole entry) above

Histone deacetylase 1 = Histone deacetylase 1 (Homo sapiens, UniProt Q13547)
Histone deacetylase 2 = Histone deacetylase 2 (Homo sapiens, UniProt Q92769)
Plasma [8] = test: Stability in rat plasma at 5 uM after 4 hrs; type: ADME, cell-free
[9] = molecular target: T3, Protein deacetylase HDAC6 (Homo sapiens, UniProt Q9UBN7)
T3 sequence (Q9UBN7 whole entry): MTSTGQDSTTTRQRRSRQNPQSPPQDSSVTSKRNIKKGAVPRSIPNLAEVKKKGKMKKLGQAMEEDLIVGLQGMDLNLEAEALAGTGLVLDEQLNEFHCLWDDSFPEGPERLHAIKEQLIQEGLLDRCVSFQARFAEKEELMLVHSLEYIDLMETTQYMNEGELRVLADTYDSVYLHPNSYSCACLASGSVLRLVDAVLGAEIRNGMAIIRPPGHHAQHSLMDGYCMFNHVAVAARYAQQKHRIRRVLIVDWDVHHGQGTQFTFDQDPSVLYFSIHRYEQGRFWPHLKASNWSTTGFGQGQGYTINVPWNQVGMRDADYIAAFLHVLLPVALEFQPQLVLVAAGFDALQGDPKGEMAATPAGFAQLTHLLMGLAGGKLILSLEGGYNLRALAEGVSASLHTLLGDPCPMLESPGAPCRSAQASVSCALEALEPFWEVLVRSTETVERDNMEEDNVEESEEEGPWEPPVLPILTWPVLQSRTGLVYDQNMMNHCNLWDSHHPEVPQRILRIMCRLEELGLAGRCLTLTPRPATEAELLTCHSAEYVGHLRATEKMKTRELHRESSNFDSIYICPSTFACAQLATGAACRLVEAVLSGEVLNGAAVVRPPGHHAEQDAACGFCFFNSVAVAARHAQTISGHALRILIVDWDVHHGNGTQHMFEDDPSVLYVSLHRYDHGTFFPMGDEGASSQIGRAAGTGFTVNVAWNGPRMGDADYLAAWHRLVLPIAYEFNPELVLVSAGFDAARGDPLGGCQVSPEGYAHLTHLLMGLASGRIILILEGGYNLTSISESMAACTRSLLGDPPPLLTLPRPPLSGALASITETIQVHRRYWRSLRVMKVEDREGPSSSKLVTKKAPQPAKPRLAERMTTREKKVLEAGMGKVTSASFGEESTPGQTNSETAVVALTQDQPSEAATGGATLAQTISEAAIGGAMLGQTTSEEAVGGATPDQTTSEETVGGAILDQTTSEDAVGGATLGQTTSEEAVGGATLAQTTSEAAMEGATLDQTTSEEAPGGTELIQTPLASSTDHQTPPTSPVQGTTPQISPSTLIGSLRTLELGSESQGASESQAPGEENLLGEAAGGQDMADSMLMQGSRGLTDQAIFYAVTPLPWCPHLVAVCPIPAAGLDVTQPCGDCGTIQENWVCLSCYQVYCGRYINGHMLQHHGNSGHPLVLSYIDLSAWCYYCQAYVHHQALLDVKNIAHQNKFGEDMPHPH

A549 = test: Antiproliferative activity against human A549 cells by CellTiter-Blue cell viability assay; type: functional, cell-based
G-401 = test: Antiproliferative activity against human G401 cells by CellTiter-Blue cell viability assay; type: functional, cell-based
Histone deacetylase 7 = molecular target: T4, Histone deacetylase 7 (Homo sapiens, UniProt Q8WUI4); test: Inhibition of HDAC7 expressed in Escherichia coli
T4 sequence (Q8WUI4 whole entry): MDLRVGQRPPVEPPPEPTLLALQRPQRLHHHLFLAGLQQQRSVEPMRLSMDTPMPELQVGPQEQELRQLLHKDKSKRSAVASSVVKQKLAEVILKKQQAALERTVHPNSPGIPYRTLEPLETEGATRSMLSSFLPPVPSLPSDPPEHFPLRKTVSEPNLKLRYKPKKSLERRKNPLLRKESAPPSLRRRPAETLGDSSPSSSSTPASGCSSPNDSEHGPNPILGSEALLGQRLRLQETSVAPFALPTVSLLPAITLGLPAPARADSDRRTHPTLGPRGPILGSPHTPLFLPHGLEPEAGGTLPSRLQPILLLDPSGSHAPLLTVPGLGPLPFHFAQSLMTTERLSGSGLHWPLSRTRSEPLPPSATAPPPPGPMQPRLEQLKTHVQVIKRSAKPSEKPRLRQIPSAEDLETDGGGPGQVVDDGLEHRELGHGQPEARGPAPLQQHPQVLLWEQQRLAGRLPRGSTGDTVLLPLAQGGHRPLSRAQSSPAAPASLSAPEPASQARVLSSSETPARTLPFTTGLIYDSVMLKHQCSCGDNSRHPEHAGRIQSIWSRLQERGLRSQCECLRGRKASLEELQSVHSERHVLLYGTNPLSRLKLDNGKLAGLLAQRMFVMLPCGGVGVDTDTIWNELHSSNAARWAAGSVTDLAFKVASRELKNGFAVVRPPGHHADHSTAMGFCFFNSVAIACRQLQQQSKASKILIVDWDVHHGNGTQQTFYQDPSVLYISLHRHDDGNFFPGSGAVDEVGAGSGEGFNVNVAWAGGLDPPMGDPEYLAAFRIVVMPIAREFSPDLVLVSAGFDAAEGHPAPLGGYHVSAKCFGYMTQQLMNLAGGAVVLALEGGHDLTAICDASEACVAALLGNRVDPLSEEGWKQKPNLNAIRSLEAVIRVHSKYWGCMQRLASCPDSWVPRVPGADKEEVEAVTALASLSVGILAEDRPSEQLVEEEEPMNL

Plasma [10] = test: Stability in human plasma at 5 uM after 24 hrs; type: ADME, cell-free
Plasma [11] = test: Stability in dog plasma at 5 uM after 24 hrs; type: ADME, cell-free, Canis lupus familiaris
Plasma [12] = test: Stability in mouse plasma at 5 uM after 24 hrs; type: ADME, cell-free
[13] = AUC (0 to infinity) in Sprague-Dawley rat at 3 mg/kg, iv; type: ADME, organism-based; design: dose 3 mg/kg, route intravenous, time infinity; details: plasma
Plasma [14] = test: Stability in rat plasma at 5 uM after 24 hrs; type: ADME, cell-free
[15] = Clearance in Sprague-Dawley rat plasma at 3 mg/kg, iv; type: ADME, organism-based; design: dose 3 mg/kg, route intravenous
Mus musculus [16] = test: Toxicity against human HCT116 cells xenografted BALB/c mouse assessed as body weight loss at 25 mg/kg, ip administered 5 days per week for 2.5 weeks; type: organism-based, HCT-116; design: dose 25 mg/kg, route intraperitoneal; details: in vivo
HCT-116 [17] = test: Antitumor activity against human HCT116 cells xenografted BALB/c mouse assessed as tumor growth inhibition at 60 mg/kg, ip administered for 5 days per week for 2.5 weeks; details: HCT-116, ip, read-out: TGI
[18] = Toxicity in ip dosed BALB/c mouse assessed as maximum tolerated dose; type: organism-based; details: in vivo
[19] = molecular target: T5, Protein deacetylase HDAC6 (Homo sapiens) (UniProt Q9UBN7); test: Inhibition of HDAC6 at 10 uM
T5 sequence (whole entry): T3 sequence (Q9UBN7 whole entry)

[20] = molecular target: T6, Histone deacetylase 8 (Homo sapiens) (UniProt Q9BY41); details: 10 uM
T6 sequence (whole entry): T1 sequence (Q9BY41 whole entry)
Description: Inhibition of HDAC8 expressed in Escherichia coli at 10 uM

[21] = Oral bioavailability in Sprague-Dawley rat; type: ADME, organism-based; details: in vivo
[22] = Clearance in Sprague-Dawley rat plasma; type: ADME, organism-based
[23] = Intrinsic clearance in Sprague-Dawley rat liver microsomes; type: ADME, Microsome
[24] = Intrinsic clearance in human liver microsomes; type: ADME, Microsome
[25] = Terminal half life in Sprague-Dawley rat; type: ADME, organism-based; details: in vivo
Mus musculus [26] = test: Toxicity against human HCT116 cells xenografted BALB/c mouse assessed as body weight loss at 60 mg/kg, ip administered 5 days per week for 2.5 weeks; type: organism-based, HCT-116; design: dose 60 mg/kg, route intraperitoneal; details: in vivo
Mus musculus [27] = test: Toxicity against human HCT116 cells xenografted BALB/c mouse assessed as body weight loss at 100 mg/kg, ip administered 5 days per week for 2.5 weeks; type: organism-based, HCT-116; design: dose 100 mg/kg, route intraperitoneal; details: in vivo

Histone deacetylase 5, sequence (Q9UQL6 whole entry): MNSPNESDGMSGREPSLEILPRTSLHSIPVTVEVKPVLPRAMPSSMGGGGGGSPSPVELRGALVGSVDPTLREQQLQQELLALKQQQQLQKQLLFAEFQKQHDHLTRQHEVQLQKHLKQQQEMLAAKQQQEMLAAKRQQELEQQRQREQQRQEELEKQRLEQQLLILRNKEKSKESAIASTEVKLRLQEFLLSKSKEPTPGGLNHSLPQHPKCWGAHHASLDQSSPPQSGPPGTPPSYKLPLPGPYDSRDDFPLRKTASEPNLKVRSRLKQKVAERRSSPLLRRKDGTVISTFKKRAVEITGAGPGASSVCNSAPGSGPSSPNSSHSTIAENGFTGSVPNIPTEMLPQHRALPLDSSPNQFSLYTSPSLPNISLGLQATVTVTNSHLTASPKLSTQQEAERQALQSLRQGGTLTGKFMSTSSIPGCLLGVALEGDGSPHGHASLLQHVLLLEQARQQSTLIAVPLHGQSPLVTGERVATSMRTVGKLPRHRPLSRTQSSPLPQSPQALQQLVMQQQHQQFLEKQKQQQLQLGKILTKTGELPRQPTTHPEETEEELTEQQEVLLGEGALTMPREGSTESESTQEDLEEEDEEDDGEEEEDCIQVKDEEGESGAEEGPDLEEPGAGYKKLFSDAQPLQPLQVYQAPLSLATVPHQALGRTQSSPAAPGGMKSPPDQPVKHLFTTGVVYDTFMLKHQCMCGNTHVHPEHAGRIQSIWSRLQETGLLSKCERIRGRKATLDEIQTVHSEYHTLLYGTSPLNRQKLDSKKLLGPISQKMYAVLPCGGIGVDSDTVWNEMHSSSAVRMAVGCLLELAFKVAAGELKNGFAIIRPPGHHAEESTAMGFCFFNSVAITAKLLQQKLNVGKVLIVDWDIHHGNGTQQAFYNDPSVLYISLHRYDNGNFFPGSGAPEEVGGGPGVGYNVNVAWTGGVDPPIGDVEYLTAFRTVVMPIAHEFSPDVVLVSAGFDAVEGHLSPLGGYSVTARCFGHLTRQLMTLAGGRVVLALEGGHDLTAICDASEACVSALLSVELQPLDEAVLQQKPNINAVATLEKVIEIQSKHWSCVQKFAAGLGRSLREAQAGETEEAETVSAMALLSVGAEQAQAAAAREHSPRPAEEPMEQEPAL
Histone deacetylase 1, sequence (Q13547 whole entry): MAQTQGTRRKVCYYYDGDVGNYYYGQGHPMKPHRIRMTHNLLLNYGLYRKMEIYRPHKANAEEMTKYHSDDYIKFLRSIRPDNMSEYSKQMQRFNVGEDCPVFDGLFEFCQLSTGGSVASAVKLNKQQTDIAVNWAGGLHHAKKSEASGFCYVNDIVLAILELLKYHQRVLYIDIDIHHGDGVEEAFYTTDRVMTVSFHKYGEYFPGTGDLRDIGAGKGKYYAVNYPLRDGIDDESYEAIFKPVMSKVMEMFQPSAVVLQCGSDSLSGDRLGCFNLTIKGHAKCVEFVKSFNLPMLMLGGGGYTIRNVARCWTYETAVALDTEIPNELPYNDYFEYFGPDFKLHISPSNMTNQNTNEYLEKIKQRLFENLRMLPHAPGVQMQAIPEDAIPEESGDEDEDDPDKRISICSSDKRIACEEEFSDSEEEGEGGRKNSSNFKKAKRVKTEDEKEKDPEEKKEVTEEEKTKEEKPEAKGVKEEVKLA
Histone deacetylase 3, sequence (O15379 whole entry): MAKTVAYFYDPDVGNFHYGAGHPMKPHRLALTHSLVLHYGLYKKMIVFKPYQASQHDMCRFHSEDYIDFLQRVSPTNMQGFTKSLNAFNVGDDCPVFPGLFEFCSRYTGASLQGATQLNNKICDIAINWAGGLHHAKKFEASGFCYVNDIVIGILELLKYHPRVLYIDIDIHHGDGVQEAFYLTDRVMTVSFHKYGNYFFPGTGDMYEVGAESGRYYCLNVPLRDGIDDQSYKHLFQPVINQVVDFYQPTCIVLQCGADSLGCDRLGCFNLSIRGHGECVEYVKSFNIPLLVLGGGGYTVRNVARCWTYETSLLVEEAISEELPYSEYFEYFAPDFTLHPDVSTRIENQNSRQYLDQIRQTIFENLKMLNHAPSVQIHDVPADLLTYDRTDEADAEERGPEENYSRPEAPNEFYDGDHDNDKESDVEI
Histone deacetylase 2, sequence (Q92769 whole entry): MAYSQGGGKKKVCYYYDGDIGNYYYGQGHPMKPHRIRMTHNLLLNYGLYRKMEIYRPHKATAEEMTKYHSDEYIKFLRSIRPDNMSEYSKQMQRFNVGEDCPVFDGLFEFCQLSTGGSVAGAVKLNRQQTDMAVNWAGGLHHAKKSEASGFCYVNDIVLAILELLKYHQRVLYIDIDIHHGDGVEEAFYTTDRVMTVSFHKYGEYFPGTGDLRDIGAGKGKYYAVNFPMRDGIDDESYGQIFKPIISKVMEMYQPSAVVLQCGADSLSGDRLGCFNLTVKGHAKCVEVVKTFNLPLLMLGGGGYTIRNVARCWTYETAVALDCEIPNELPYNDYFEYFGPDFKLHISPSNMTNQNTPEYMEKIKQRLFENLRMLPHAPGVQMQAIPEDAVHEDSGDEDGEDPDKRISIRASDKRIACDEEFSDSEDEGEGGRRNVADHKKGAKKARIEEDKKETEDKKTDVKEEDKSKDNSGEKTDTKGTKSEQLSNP

Compound	IC50 (Histone deacetylase 5) [nM]	IC50 (Histone deacetylase 4 [5]) [nM]	IC50 (HeLa) [nM]	IC50 (Histone deacetylase 3) [nM]	IC50 (Histone deacetylase 4 [7]) [nM]	IC50 (Histone deacetylase 1) [nM]	IC50 (Histone deacetylase 2) [nM]	IC50 (Histone deacetylase 7) [nM]	IC50 [1] [nM]	Stability (Plasma [2])	IC50 (Histone deacetylase 8) [nM]	Stability (Plasma [3])	IC50 (HCT-116 [4]) [nM]	Stability (Plasma [6])	IC50 (A2780) [nM]	Stability (Plasma [8])	IC50 [9] [nM]	IC50 (A549) [nM]	IC50 (G-401) [nM]	MTD [18] [mg/kg]	also measured
COc1ccc2[nH]c(C)c(CC(=O)N[C@@H](CCCCCC(C)=O)c3nc4ccc(Cl)cc4[nH]3)c2c1	> 10000	> 10000	3100	1000	4200	670	880	> 10000	41000	Stable	> 10000	Stable	4200	Stable	11000	Stable	970	8200	7500		
Nc1ccccc1NC(=O)c1ccc(CNC(=O)OCc2cccnc2)cc1 [ENTINOSTAT]									> 20000				700		3000			1200	1300	25	Activity (Mus musculus [16]): < 10%; inhibition in vivo at 60 mg/kg (HCT-116 [17]): 69%
COc1ccc2[nH]c(C)c(CC(=O)N[C@@H](CCCCCC(C)=O)c3ncc(-c4ccccc4)[nH]3)c2c1	> 10000	> 10000	880	120	6000	59	110	> 10000	16000	Stable	> 5000	Stable	500	Stable	2200	Stable	340	6300	960	60	bioavailability [21]: 15%; clearance [22]: 80 mL/min/kg; microsomal CLint [23]: > 400 µL/min/mg; microsomal CLint [24]: > 400 µL/min/mg; half-life [25]: 1.3 h; Activity (Mus musculus [26]): < 10%
O=C(CCCCCCC(=O)Nc1ccccc1)NO [VORINOSTAT]																					Activity (Mus musculus [27]): < 10%

More lines, main results first:

IC50 (Histone deacetylase 5) [nM]	IC50 (Histone deacetylase 4 [5]) [nM]	IC50 (HeLa) [nM]	IC50 (Histone deacetylase 3) [nM]	IC50 (Histone deacetylase 4 [7]) [nM]	IC50 (Histone deacetylase 1) [nM]	IC50 (Histone deacetylase 2) [nM]	IC50 (Histone deacetylase 7) [nM]	Compound	IC50 [1] [nM]	Stability (Plasma [2])	IC50 (Histone deacetylase 8) [nM]	Stability (Plasma [3])	IC50 (HCT-116 [4]) [nM]	Stability (Plasma [6])	IC50 (A2780) [nM]	Stability (Plasma [8])	IC50 [9] [nM]	IC50 (A549) [nM]	IC50 (G-401) [nM]	MTD [18] [mg/kg]	also measured
		2000			140			CC(=O)CCCCC[C@H](NC(=O)CCN1CCCCC1)C(=O)Nc1cnc2ccccc2c1.Cl.Cl													Stability (Plasma [10]): Stable; Stability (Plasma [11]): Stable; Activity (Plasma [12]): Not Active; AUC(0-inf) [13]: 0.05 µM·h; Activity (Plasma [14]): Not Active; clearance [15]: > 150 mL/min/kg
> 10000	> 10000	340	48	> 10000	26	59	> 10000	CCC(=O)CCCCC[C@H](NC(=O)Cc1c(C)[nH]c2ccc(OC)cc12)c1ncc(-c2ccccc2)[nH]1	5300				330		420			5200	250		inhibition [19]: 40%; inhibition [20]: 40%
